Assays:
[1] = test system: REC-1 T474I cell lines; assay: Cell proliferation assay REC-1 BTK T474I knock-in cells (ATPlite, 72 hours); type: cell-based; conditions: Homo sapiens, Rec1; 72 hours; read-out: IC50 REC-1 T474I
Description: Cell proliferation assay Generation of BTK […] knock-in cell lines wt-REC-1 cell lines expressing mutant BTK were created at Synthego Corporation. Cell lines expressing BTK […] was generated via CRISPR/Cas9. Monoclonal REC-1 […] cell lines were obtained by single cell cloning. The mutation status of all cell lines was confirmed via sequencing. […] Luminescence was recorded on an Envision multimode reader. The cell signal at the start of incubation was recorded separately in order to distinguish between cell population growth and cell death. In addition, maximum growth was determined by incubation of a duplicate without compound in the presence of 0.3% DMSO. Percentage growth was used as the main y-axis signal.

[2] = molecular target: full-length BTK C481S enzyme (Homo sapiens (Human), UniProt Q06187, C481S); assay: Biochemical kinase assay BTK C481S (IMAP)
Chain of full-length BTK C481S enzyme (Q06187 whole entry C481S): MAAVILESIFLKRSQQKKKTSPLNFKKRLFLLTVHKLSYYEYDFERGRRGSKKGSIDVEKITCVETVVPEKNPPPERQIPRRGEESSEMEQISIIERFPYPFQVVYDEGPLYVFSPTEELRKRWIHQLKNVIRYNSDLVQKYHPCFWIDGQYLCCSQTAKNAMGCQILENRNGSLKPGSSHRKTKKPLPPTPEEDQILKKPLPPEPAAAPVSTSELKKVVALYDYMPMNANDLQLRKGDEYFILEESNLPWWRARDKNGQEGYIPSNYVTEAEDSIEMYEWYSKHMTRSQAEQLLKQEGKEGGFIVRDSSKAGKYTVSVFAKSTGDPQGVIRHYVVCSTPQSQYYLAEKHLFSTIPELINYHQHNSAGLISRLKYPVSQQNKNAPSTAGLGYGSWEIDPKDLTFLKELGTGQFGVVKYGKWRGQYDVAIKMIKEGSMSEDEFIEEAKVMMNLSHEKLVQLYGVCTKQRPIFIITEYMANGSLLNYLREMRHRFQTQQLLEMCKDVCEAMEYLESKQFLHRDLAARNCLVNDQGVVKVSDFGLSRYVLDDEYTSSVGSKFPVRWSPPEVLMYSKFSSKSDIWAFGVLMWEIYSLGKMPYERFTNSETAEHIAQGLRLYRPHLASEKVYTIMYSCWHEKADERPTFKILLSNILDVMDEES
Description: Biochemical kinase assay BTK […] To determine the inhibitory activity of compounds on BTK C481S enzyme activity, the IMAP® assay (Molecular Devices) was used. […] After pre-incubation of 1 hour in the dark at room temperature, fluorescein-labeled MBP-derived substrate peptide (Molecular Devices, cat. no. RP 7123) was added, followed by ATP to start the reaction. Final enzyme concentration was 1.2 nM final substrate concentration 50 nM, and final ATP concentration was 7 μM. The reaction was allowed to proceed for 2 hours at room temperature in the dark. The reaction was stopped by quenching with IMAP progressive binding solution according to the protocol of the manufacturer (Molecular Devices). Fluorescein polarization was measured on an Envision multimode reader (Perkin Elmer, Waltham, MA, U.S.A.). IC50 were calculated using XLfitTM5 software (ID Business Solutions, Ltd., Surrey, U.K.). Results of the BTK […] binding affinity are shown in Table 1 below. • IC50 BTK […]: […]

[3] = test system: wt-TMD8 diffuse large B-cell lymphoma cells; assay: Cell proliferation assay wt-TMD8 (ATPlite, 120 hours); type: cell-based; conditions: B-cell; wt-TMD8 cells, 120 hours, ATPlite; read-out: IC50 wt-TMD8
Description: Cell proliferation assay wt-TMD8 diffuse large B-cell lymphoma cells were purchased from Tokyo Medical and Dental University and cultured in RPMI-1640 cell culture medium (cat. no. 61870036, Life Technologies), supplemented with 10% (v/v) heat-inactivated fetal bovine calf serum and 1% penicillin/[…]. 1600 cells per well (in 45 μl) were seeded in a white 384-well culture plate (cat. no. 781080, Greiner Bio-One) and allowed to rest for at least 5 hours at 37° C., 95% humidity, and 5% CO2. 5 μl compound solution was added to the cells and incubation was continued for 120 hours (5 days), followed by addition of 24 μl ATPlite 1Step™ (PerkinElmer, Groningen, The Netherlands) solution was added to each well. Luminescence was recorded on an Envision multimode reader. The cell signal at the start of incubation was recorded separately in order to distinguish between cell population growth and cell death. In addition, maximum growth was determined by incubation of a duplicate without compound in the presence of 0.3% DMSO. Percentage growth was used as the main y-axis signal.

[4] = molecular target: full-length wt-BTK enzyme (Homo sapiens (Human), UniProt Q06187); assay: Biochemical kinase assay wt-BTK (IMAP)
Chain of full-length wt-BTK enzyme (Q06187 whole entry): as the sequence (Q06187 whole entry C481S) above, with S481C counted along it
Description: Biochemical kinase assay wt-BTK To determine the inhibitory activity of compounds on wt-BTK enzyme activity, the IMAP® assay (Molecular Devices) was used. […] After pre-incubation of 1 hour in the dark at room temperature, fluorescein-labeled MBP-derived substrate peptide (Molecular Devices, cat. no. RP 7123) was added, followed by ATP to start the reaction. Final enzyme concentration was 1.2 nM, final substrate concentration 50 nM, and final ATP concentration was 4 μM. The reaction was allowed to proceed for 2 hours at room temperature in the dark. The reaction was stopped by quenching with IMAP progressive binding solution according to the protocol of the manufacturer (Molecular Devices). Fluorescein polarization was measured on an Envision multimode reader (Perkin Elmer, Waltham, MA, U.S.A.). […] Results of the wt-BTK binding affinity are shown in Table 1 below. • IC50 wt-BTK: […]

[5] = test system: wt-REC-1 mantle cell lymphoma cells; assay: Cell proliferation assay wt-REC-1 (ATPlite, 72 hours); type: cell-based; conditions: 72 h; read-out: IC50 wt-REC-1
Description: Results of the BTK […] binding affinity are shown in Table 1 below. • IC50 BTK […]: […] wt-REC-1 mantle cell lymphoma cells were purchased from American Type Culture Collection via Synthego Corporation (cat. no. CRL-3004, ATCC). […] Luminescence was recorded on an Envision multimode reader. The cell signal at the start of incubation was recorded separately in order to distinguish between cell population growth and cell death. In addition, maximum growth was determined by incubation of a duplicate without compound in the presence of 0.3% DMSO. Percentage growth was used as the main y-axis signal. IC50s were fitted by non-linear regression using IDBS XLfitTM5 using a 4-parameter logistic curve, yielding a maximum signal, minimum signal, hill-parameter and IC50. Results of the wt-REC-1 proliferation are shown in Table 1 below. • IC50 wt-REC-1: […]

Row | Compound | IC50 [1] | IC50 [2] | IC50 [3] | IC50 [4] | IC50 [5]
1 | CN1C/C=C/c2cnc(N)c3c(-c4ccc(C(=O)Nc5cc(C(F)(F)F)ccn5)cc4)nn(c23)[C@@H]2CCC[C@H](C2)C(=O)NCC1 [Example 3] | 500 to 10000 nM | < 5 nM | < 100 nM | < 5 nM | 100 to 1000 nM
2 | Nc1ncc2c3c1c(-c1ccc(C(=O)Nc4cc(C(F)(F)F)ccn4)cc1)nn3[C@@H]1CCC[C@H](C1)C(=O)NCC/C=C/2 [Example 4] | 500 to 10000 nM | 5 to 50 nM | 100 to 1000 nM | 5 to 50 nM | 100 to 1000 nM
3 | CN1CC/C=C/c2cnc(N)c3c(-c4ccc(C(=O)Nc5cc(C(F)(F)F)ccn5)cc4)nn(c23)[C@@H]2CCC[C@H](C2)C(=O)NCC1 [Example 5] | 100 to 500 nM | < 5 nM | < 100 nM | < 5 nM | < 100 nM
4 | Nc1ncc2c3c1c(-c1ccc(C(=O)Nc4cc(C(F)(F)F)ccn4)cc1)nn3[C@@H]1CCC[C@H](C1)NC(=O)CCCC[C@@H](O)/C=C/2 [Example 12] | 500 to 10000 nM | < 5 nM | < 100 nM | < 5 nM | < 100 nM
5 | Nc1ncc2c3c1c(-c1ccc(C(=O)Nc4cc(C(F)(F)F)ccn4)cc1)nn3[C@@H]1CCC[C@H](C1)NC(=O)CCC[C@H](O)/C=C/2 [Example 13] | 500 to 10000 nM | < 5 nM | < 100 nM | < 5 nM | 100 to 1000 nM
6 | Nc1ncc2c3c1c(-c1ccc(C(=O)Nc4cc(C(F)(F)F)ccn4)cc1)nn3[C@@H]1CCC[C@H](C1)NC(=O)CCC[C@@H](O)/C=C/2 [Example 14] | 500 to 10000 nM | < 5 nM | < 100 nM | < 5 nM | 100 to 1000 nM
7 | Nc1ncc2c3c1c(-c1ccc(C(=O)Nc4cc(C(F)(F)F)ccn4)cc1)nn3[C@@H]1CCC[C@H](C1)NC(=O)CCCCCC/C=C/2 [Example 16] | < 100 nM | < 5 nM | < 100 nM | < 5 nM | < 100 nM
8 | Nc1ncc2c3c1c(-c1ccc(C(=O)Nc4ccccn4)cc1)nn3[C@@H]1CCC[C@H](C1)NC(=O)CCCC/C=C/2 [Example 23] | 100 to 500 nM | < 5 nM | < 100 nM | < 5 nM | < 100 nM
9 | Nc1ncc2c3c1c(-c1ccc(C(=O)Nc4ccccn4)cc1)nn3[C@@H]1CCC[C@H](C1)NC(=O)CCCCCC/C=C/2 [Example 29] | 100 to 500 nM | < 5 nM | < 100 nM | < 5 nM | < 100 nM
10 | CN1CC/C=C/c2cnc(N)c3c(-c4ccc(C(=O)Nc5cc(C(F)(F)F)ccn5)cc4)nn(c23)[C@@H]2CCC[C@H](C2)NC(=O)C1 [Example 30] | 100 to 500 nM | < 5 nM | < 100 nM | < 5 nM | < 100 nM
11 | Nc1ncc2c3c1c(-c1ccc(C(=O)Nc4cc(C(F)(F)F)ccn4)cc1)nn3[C@@H]1CCC[C@H](C1)NC(=O)CNCCC/C=C/2 [Example 31] | < 100 nM | < 5 nM | < 100 nM | < 5 nM | < 100 nM
12 | Nc1ncc2c3c1c(-c1ccc(C(=O)Nc4cc(C(F)(F)F)ccn4)cc1)nn3[C@@H]1CCC[C@H](C1)NC(=O)CNCC/C=C/2 [Example 32] | 100 to 500 nM | < 5 nM | < 100 nM | < 5 nM | < 100 nM
13 | CC(=O)N1CC/C=C/c2cnc(N)c3c(-c4ccc(C(=O)Nc5cc(C(F)(F)F)ccn5)cc4)nn(c23)[C@@H]2CCC[C@H](C2)NC(=O)C1 [Example 35] | 100 to 500 nM | < 5 nM | < 100 nM | < 5 nM | < 100 nM
14 | CC(=O)N1CC/C=C/c2cnc(N)c3c(-c4ccc(C(=O)Nc5cc(C(F)(F)F)ccn5)cc4)nn(c23)[C@@H]2CCC[C@H](C2)NC(=O)CC1 [Example 36] | 100 to 500 nM | < 5 nM | < 100 nM | < 5 nM | < 100 nM
15 | Nc1ncc2c3c1c(-c1ccc(C(=O)Nc4cc(C(F)(F)F)ccn4)cc1)nn3[C@@H]1CCC[C@H](C1)NC(=O)CCCCC/C=C/2 [Example 37] | < 100 nM | < 5 nM | < 100 nM | < 5 nM | < 100 nM
16 | CN1CC/C=C/c2cnc(N)c3c(-c4ccc(C(=O)Nc5cc(C(F)(F)F)ccn5)cc4)nn(c23)[C@@H]2CCC[C@H](C2)NC(=O)CC1 [Example 38] | < 100 nM | < 5 nM | < 100 nM | < 5 nM | < 100 nM
17 | CN1CCC/C=C/c2cnc(N)c3c(-c4ccc(C(=O)Nc5cc(C(F)(F)F)ccn5)cc4)nn(c23)[C@@H]2CCC[C@H](C2)NC(=O)C1 [Example 41] | < 100 nM | < 5 nM | < 100 nM | < 5 nM | < 100 nM
18 | Nc1ncc2c3c1c(-c1ccc(C(=O)Nc4cc(C(F)(F)F)ccn4)cc1)nn3[C@@H]1CCC[C@H](C1)NC(=O)[C@H]1CCN1CC/C=C/2 [Example 42] | 100 to 500 nM | < 5 nM | < 100 nM | < 5 nM | < 100 nM
19 | C[C@H]1/C=C/c2cnc(N)c3c(-c4ccc(C(=O)Nc5cc(C(F)(F)F)ccn5)cc4)nn(c23)[C@@H]2CCC[C@H](C2)NC(=O)CCCN1C [Example 43] | 500 to 10000 nM | < 5 nM | < 100 nM | < 5 nM | 100 to 1000 nM
20 | C[C@@H]1CCn2nc(-c3ccc(C(=O)Nc4cc(C(F)(F)F)ccn4)cc3)c3c(N)ncc(c32)/C=C/CN2CC[C@H]2C(=O)N1 [Example 55] | 500 to 10000 nM | < 5 nM | < 100 nM | < 5 nM | 100 to 1000 nM
21 | C[C@@H]1CCn2nc(-c3ccc(C(=O)Nc4cc(C(F)(F)F)ccn4)cc3)c3c(N)ncc(c32)/C=C/CCCCCC(=O)N1 [Example 60] | 500 to 10000 nM | < 5 nM | < 100 nM | < 5 nM | < 100 nM
22 | C[C@@H]1CCn2nc(-c3ccc(C(=O)Nc4cc(C(F)(F)F)ccn4)cc3)c3c(N)ncc(c32)/C=C/CCOCCC(=O)N1 [Example 69] | 100 to 500 nM | < 5 nM | < 100 nM | < 5 nM | 100 to 1000 nM
23 | C[C@@H]1CCn2nc(-c3ccc(C(=O)Nc4cc(C(F)(F)F)ccn4)cc3)c3c(N)ncc(c32)/C=C/CCCOCC(=O)N1 [Example 70] | 500 to 10000 nM | < 5 nM | < 100 nM | < 5 nM | < 100 nM
24 | C[C@@H]1CCn2nc(-c3ccc(C(=O)Nc4cc(C(F)(F)F)ccn4)cc3)c3c(N)ncc(c32)/C=C/C[C@@H](C)OCCC(=O)N1 [Example 72] | 500 to 10000 nM | < 5 nM | < 100 nM | < 5 nM | < 100 nM

Source: patent publication US20250074911A1, “MACROCYCLIC BTK INHIBITORS” (Crossfire Oncology Holding B.V., priority 2021, published 2025)
